This note sets out measurements from patent US9255132B2, “Angiopoietin derived peptides” (Compugen Ltd., priority 2008, dated 2016).

Residues, ends and D or L forms follow the SMILES beside them.

Experiment [1] has as its system oxygen-induced retinopathy (OIR). Description: Rodent model of oxygen-induced retinopathy (OIR). The experiment is classed as in vivo, Sprague Dawley rats. The conditions noted are these: for inhibition of pre-retinal neovascular growth (pathological angiogenesis): relative to PBS-injected eyes, P20. An excerpt: In order to assess the in viva efficacy of CGEN-A 11 [SEQ ID NO: 10] in a disease model of angiogenesis, a rodent model of oxygen-induced retinopathy (OIR) was used. Sprague Dawley rats were raised from birth through day PI4 in a variable oxygen atmosphere consisting of 24-hour alternating cycles of 50% and 10% oxygen. Rats were predisposed to pathological retinal angiogenesis as a result of oxygen treatment. Upon removal from the oxygen exposure chamber on day P14, rats received intravitreal injections of CGEN-A11 [SEQ ID NO: 10] in one of two doses: 15 μg/ml (low) or 75 μg/ml (high), 100 μg/ml recombinant rat Tie-2/Fc (R&D Systems, 3874-T2) or 100 μg/ml anti-VEGFR2 (Sigma, V1014) as positive controls, a combination of CGEN-A11 [SEQ ID NO: 10] at 30 μg/ml and anti-VEGFR2 (100 μg/ml), or vehicle (PBS) at a volume of 5 μl. An additional similar intravitreal administration took place 3 days later, on day P17. All pups were sacrificed on day P20. Both normal, intra-retinal vascular growth and abnormal, pre-retinal neovascular growth were assessed at six days post-exposure (P20) in ADPase-stained retinal flat-mounts, using widely published methods (e.g. Penn J S et al., 1991, Invest Ophthalmol Vis Sci. 32(4):1147; MicLeod D S et al., 1987, Microvasc Res. 33:257-269). All assessments were performed by a single, highly trained observer, who was blinded to treatment group. Areas of normal and abnormal vascular growth were measured via computer-assisted image analysis using high-resolution digital images of the stained retinal flat-mounts. The data were subjected to analysis of variance to determine statistical significance and a Dunnett's post hoc test to identify how the various treatment groups compared.
Data are depicted using percent total retinal area vascularized. Sample sizes (10, 11 or 12) are indicated on each bar. […] These differences yielded statistical significance, both at p<0.0001. Statistical significance was calculated using area (mm^2) measurements.
Data are depicted as area vascularized (mm^2). Sample sizes (10, 11 or 12) are indicated on each bar.

Experiment [2] deals with T1, recombinant human Tie-2/Fc chimera (Homo sapiens, UniProt Q02763).
T1 construct: purchased R&D Systems 313-TI
Description: BIACORE (SPR) direct binding of peptides to immobilized Tie2. The conditions noted are these: 10-50 μM peptide. An excerpt:
The capability of CGEN-G6 [SEQ ID NO: 6], CGEN-F9 [SEQ ID NO: 7], CGEN-C6 [SEQ ID NO: 9], CGEN-A11 [SEQ ID NO: 10], and CGEN-G2 [SEQ ID NO: 11] to specifically bind to recombinant Tie2 and interfere with the binding of Ang1, Ang2, or Ang4 to Tie2 was investigated using the BIACORE technology, measuring protein-protein interaction and binding affinity (Wendler et al 2005, Anal Bioanal Chem, 381: 1056-1064). The technology is based on surface plasmon resonance (SPR), an optical phenomenon that enables detection of unlabeled interactants in real time. […]
Peptide-protein interaction was analyzed using surface plasmon resonance. […] Solutions containing 10-50 μM of CGEN-G6 [SEQ ID NO: 6], CGEN-F9 [SEQ ID NO: 7], CGEN-C6 [SEQ ID NO: 9], CGEN-A11 [SEQ ID NO: 10], and CGEN-G2 [SEQ ID NO: 11] were injected into the sample chamber of the BIACORE device at a rate of 20 μl/min and the interaction was monitored using surface plasmon resonance. In addition, solutions containing 100-500 nM of Ang1, Ang2, and Ang4 proteins were injected alone or in combination with 10-50 μM of CGEN-G6 [SEQ ID NO: 6], CGEN-F9 [SEQ ID NO: 7], CGEN-C6 [SEQ ID NO: 9], CGEN-A11 [SEQ ID NO: 10], and CGEN-G2 [SEQ ID NO: 11] peptides at a constant ratio of 1:100 (Ang ligand to peptide) into the sample chamber of the BIACORE device at a rate of 20 μl/min and the interaction was monitored using surface plasmon resonance. […]
Background: In SPR one partner is held on a chip, and binding of the other changes the refractive index at the surface.

T1 sequence (Q02763 with tags, fused parts or gaps limits assumed): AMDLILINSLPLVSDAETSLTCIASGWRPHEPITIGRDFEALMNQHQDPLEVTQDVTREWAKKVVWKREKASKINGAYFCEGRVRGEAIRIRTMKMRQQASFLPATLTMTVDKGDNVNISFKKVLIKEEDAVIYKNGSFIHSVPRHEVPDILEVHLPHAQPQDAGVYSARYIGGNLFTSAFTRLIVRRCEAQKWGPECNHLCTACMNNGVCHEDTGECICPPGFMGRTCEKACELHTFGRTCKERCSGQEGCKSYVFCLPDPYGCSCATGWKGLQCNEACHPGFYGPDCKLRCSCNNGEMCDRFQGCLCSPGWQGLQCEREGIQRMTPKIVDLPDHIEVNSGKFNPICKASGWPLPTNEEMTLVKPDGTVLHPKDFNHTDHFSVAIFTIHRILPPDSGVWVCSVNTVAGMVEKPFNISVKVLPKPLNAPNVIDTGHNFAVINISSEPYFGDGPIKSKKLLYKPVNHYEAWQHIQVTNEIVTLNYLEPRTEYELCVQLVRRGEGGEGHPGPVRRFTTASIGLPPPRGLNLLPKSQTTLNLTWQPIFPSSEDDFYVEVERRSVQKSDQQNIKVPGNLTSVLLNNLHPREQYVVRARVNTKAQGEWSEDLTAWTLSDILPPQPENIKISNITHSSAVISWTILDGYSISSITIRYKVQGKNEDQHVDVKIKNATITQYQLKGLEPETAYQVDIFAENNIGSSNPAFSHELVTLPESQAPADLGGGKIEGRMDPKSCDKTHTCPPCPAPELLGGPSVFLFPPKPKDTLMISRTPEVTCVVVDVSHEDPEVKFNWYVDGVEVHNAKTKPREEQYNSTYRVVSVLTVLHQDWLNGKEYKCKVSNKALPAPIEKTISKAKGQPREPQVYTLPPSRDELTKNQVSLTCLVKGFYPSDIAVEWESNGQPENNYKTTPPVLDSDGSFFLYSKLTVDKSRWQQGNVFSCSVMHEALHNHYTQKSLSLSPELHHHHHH

`CC(=O)N[C@@H](CCC(=O)O)C(=O)N[C@H](C(=O)N[C@@H](Cc1ccccc1)C(=O)N[C@@H](CC(C)C)C(=O)N[C@@H](CO)C(=O)N[C@H](C(=O)N[C@@H](CC(N)=O)C(=O)N[C@@H](CCCCN)C(=O)N[C@@H](CC(C)C)C(=O)N[C@@H](CCC(=O)O)C(=O)N[C@@H](CC(N)=O)C(=O)N[C@@H](CCC(N)=O)C(N)=O)[C@@H](C)O)[C@@H](C)O` [CGEN-A11, ETFLSTNKLENQ] (Ac-ETFLSTNKLENQ-NH2): the “inhibition of pre-retinal neovascular growth (pathological angiogenesis)” value in experiment [1] (intravitreal 15 μg/ml) is listed as 38.9%; in experiment [1] (intravitreal 75 μg/ml, p=0.0126), 76.4%. Besides, in experiment [1] (intravitreal 75 μg/ml, 5 μl, P14 and P17, assessed P20, p<0.0001), the “intra-retinal normal vascular growth compared to PBS control” value is “statistically significant increase”.

Consider `CC[C@H](C)[C@H](NC(=O)[C@H](C)NC(=O)[C@H](CCCNC(=N)N)NC(=O)[C@H](CCC(=O)O)NC(=O)[C@H](CC(C)C)NC(=O)[C@H](CCCCN)NC(=O)[C@H](CCCCN)NC(=O)[C@H](CC(C)C)NC(=O)[C@H](Cc1c[nH]c2ccccc12)NC(=O)[C@H](CCC(N)=O)NC(=O)[C@@H](NC(=O)[C@H](CC(N)=O)NC(=O)[C@H](CC(N)=O)NC(=O)[C@H](CCC(N)=O)NC(=O)[C@H](CC(C)C)NC(=O)[C@H](C)NC(=O)[C@H](CCC(N)=O)NC(=O)[C@H](CCC(=O)O)NC(=O)[C@H](CC(C)C)NC(=O)[C@H](CCC(N)=O)NC(=O)[C@H](CCCCN)NC(=O)[C@@H](NC(=O)[C@H](CCC(N)=O)NC(=O)[C@H](CCC(N)=O)NC(=O)[C@@H](NC(C)=O)[C@@H](C)O)C(C)C)[C@@H](C)O)C(=O)N[C@@H](CCCCN)C(=O)N[C@H](C(=O)N[C@H](C(=O)N[C@@H](CC(C)C)C(N)=O)[C@@H](C)CC)[C@@H](C)O` [CGEN-G2] (Ac-TQQVKQLEQALQNNTQWLKKLERAIKTIL-NH2), for which, in experiment [2], the “binding of peptide alone to immobilized Tie2” value is listed as “some non specific binding”.
